Assay: Solubility in methyl ethyl ketone
Type: physicochemical
In the case of CN1C(=O)NS(=O)(=O)c2ccccc21 [TA01], the “Solubility in methyl ethyl ketone” value is reported as greater than 2 wt %.
With CC1=CC(=O)NS(=O)(=O)O1 [TA02] the “Solubility in methyl ethyl ketone” value was greater than 10 wt %.
With O=C1CS(=O)(=O)OC2=C1CCCC2 [TA03] the “Solubility in methyl ethyl ketone” value was 5.5 wt %.
With O=C1NS(=O)(=O)Oc2ccccc21 [TA04] the “Solubility in methyl ethyl ketone” value was greater than 10 wt %.
